Tests used:
Mus musculus [1] = assay: Ratio of survival time of mice treated with VCR (0.25 mg/kg ip)+modulator given at the optimal dose of 100 mg/kg po/survival time of mice treated with VCR alone.; type: functional
Mus musculus [2] = assay: Ratio of survival time of mice treated with VCR (0.25 mg/kg ip)+modulator given at the optimal dose of 50 mg/kg po/survival time of mice treated with VCR alone.; type: functional
Mus musculus [3] = assay: Ratio of survival time of mice treated with VCR (0.25 mg/kg ip)+modulator given at the optimal dose of 100 mg/kg po/survival time of mice treated with VCR alone; type: functional
Mus musculus [4] = assay: Ratio of survival time of mice treated with VCR (0.25 mg/kg ip)+modulator given at the optimal dose of 200 mg/kg po/survival time of mice treated with VCR alone.; type: functional

Description for KB: Percent of cell viability of KB-A1 human epidermoid carcinoma remaining after inoculation with the modulator alone
Description for P388: Percent of cell viability of P388/VCR-20 murine leukemia cells remaining after inoculation with the modulator alone

Row | Compound | Viability (P388) | Viability (KB) | T/V (Mus musculus [1]) | T/V (Mus musculus [2]) | T/V (Mus musculus [1]; 100 mg/kg) | T/V (Mus musculus [3]) | T/V (Mus musculus [4])
1 | C=CCNc1nc(N2CCC(NCC3c4ccccc4CCc4ccccc43)CC2)nc2c1nnn2CC=C | 83% | 84% | 1.17 |  |  |  | 
2 | C=CCNc1nc(N2CCC(NCC3c4ccccc4CCc4ccccc43)CC2)nc2c1ccn2CC=C | 126% | 86% | 1.24 |  |  |  | 
3 | C=CCNc1nc(N2CCC(NCC(c3ccc(F)cc3)c3ccc(F)cc3)CC2)c2ncn(CC=C)c2n1 | 108% | 106% |  |  |  |  | 
4 | C=CCNc1nc(N2CCC(NCC3CCCCc4ccccc43)CC2)nc2c1ncn2CC=C (stereo unspecified) | 123% | 122% |  | 1.2 |  |  | 
5 | C=CCNc1nc(N2CCN(C(c3ccc(F)cc3)c3ccc(F)cc3)CC2)c2ncn(CC=C)c2n1 | 98% | 73% |  |  |  |  | 
6 | C=CCNc1nc(N2CCC(NC3c4ccccc4N(C)S(=O)(=O)c4cc(Cl)ccc43)CC2)nc2c1ncn2CC=C (stereo in doubt; 12) | 135% | 64% |  |  | 1.11 |  | 
7 | C=CCNc1nc(N2CCC(NCC3c4ccccc4N(C)S(=O)(=O)c4cc(Cl)ccc43)CC2)c2ncn(CC=C)c2n1 (stereo unspecified) | 89% | 141% |  |  |  | 1.03 | 
8 | C=CCNc1nc(N2CCC(NCC3c4ccccc4CCc4cc(OC)ccc43)CC2)nc2c1ncn2CC=C (stereo unspecified) | 114% | 108% | 1.54 |  |  |  | 
9 | C=CCNc1nc(N2CCC(NCc3cccc4ccccc34)CC2)nc2c1ncn2CC=C | 80% | 110% | 1.33 |  |  |  | 
10 | CCCNc1nc(N2CCC(NCC3c4ccccc4CCc4ccccc43)CC2)nc2c1ncn2CCC | 98% | 127% | 1.57 |  |  |  | 
11 | C=CCNc1nc(N2CCC(NCc3cccc4ccccc34)CC2)c2ncn(CC=C)c2n1 | 104% | 106% | 1.31 |  |  |  | 
12 | C=CCNc1nc(N2CCN(C(c3ccc(F)cc3)c3ccc(F)cc3)CC2)nc2ncn(CC=C)c12 | 97% | 104% |  |  |  |  | 
13 | C=CCNc1nc(N2CCC(NCC3c4ccccc4N(C)S(=O)(=O)c4cc(Cl)ccc43)CC2)nc2c1ncn2CC=C (stereo unspecified) | 70% | 121% | 1.13 |  |  |  | 
14 | C=CCNc1nc(N2CCC(NC3c4ccccc4CCc4ccccc43)CC2)nc2c1ncn2CC=C | 111% | 111% |  |  |  |  | 
15 | C=CCNc1nc(N2CCC(NCC3c4ccccc4CCc4ccccc43)CC2)c2ncn(CC=C)c2n1 | 112% | 95% | 1.19 |  |  |  | 
16 | C=CCNc1nc(N2CCC(NCC3c4ccccc4CCc4cc(OC)ccc43)CC2)c2ncn(CC=C)c2n1 (stereo unspecified) | 131% | 91% | 1.06 |  |  |  | 
17 | C=CCNc1nc(N2CCC(NCC3c4ccccc4COc4ccccc43)CC2)c2ncn(CC=C)c2n1 (stereo unspecified) | 91% | 110% |  |  |  |  | 
18 | C=CCNc1nc(N2CCN(C(c3ccc(F)cc3)c3ccc(F)cc3)CC2)nc2c1ncn2CC=C | 99% | 103% |  |  |  |  | 

Row | Compound | Viability (P388) | Viability (KB) | T/V (Mus musculus [1]) | T/V (Mus musculus [2]) | T/V (Mus musculus [1]; 100 mg/kg) | T/V (Mus musculus [3]) | T/V (Mus musculus [4])
19 | C=CCNc1nc(NCC=C)nc(N2CCC(NCC(c3ccc(F)cc3)c3ccc(F)cc3)CC2)n1 | 93% | 111% |  |  |  |  | 1.19
20 | C=CCNc1nc(N2CCC(NCC(c3ccccc3)(c3ccccc3)c3ccccc3)CC2)nc2c1ncn2CC=C | 119% | 127% | 1.3 |  |  |  | 
21 | C=CCNc1nc(N2CCC(NCC3Cc4ccccc4Cc4ccccc43)CC2)nc2c1ncn2CC=C (stereo unspecified) | 98% | 104% | 1.42 |  |  |  | 
22 | C=CCn1cnc2c(NCCC)nc(N3CCC(NCC4c5ccccc5CCc5ccccc54)CC3)nc21 | 103% | 112% |  | 1.38 |  |  | 
23 | C=CCNc1nc(N2CCC(NCC(c3ccc(F)cc3)c3ccc(F)cc3)CC2)nc2c1ncn2CC=C | 95% | 120% | 1.49 |  |  |  | 
24 | C=CCNc1nc(N2CCC(NCC3c4ccccc4COc4ccccc43)CC2)nc2c1ncn2CC=C (stereo unspecified) | 95% | 108% | 1.36 |  |  |  | 
25 | C=CCNc1nc(N2CCC(NCC3c4ccccc4CCc4cc(OC)c(OC)c(OC)c43)CC2)nc2c1ncn2CC=C (stereo unspecified) | 96% | 86% | 1.16 |  |  |  | 
26 | C=CCNc1nc(N2CCC(NCC3c4ccccc4N(CCC)S(=O)(=O)c4ccccc43)CC2)nc2c1ncn2CC=C (stereo unspecified) | 96% | 145% | 1.21 |  |  |  | 
27 | C=CCNc1nc(N2CCC(NCC3c4ccccc4CCc4cc(OC)ccc43)CC2)nc2c1cnn2CC=C (stereo unspecified) | 90% | 103% | 1.18 |  |  |  | 
28 | C=CCn1ncc2c(NCCC)nc(N3CCC(NCC4c5ccccc5CCc5cc(OC)ccc54)CC3)nc21 (stereo unspecified) | 98% | 86% | 1.3 |  |  |  | 
29 | C=CCNc1nc(N2CCC(NCC3c4ccccc4CCc4ccccc43)CC2)nc2c1ncn2CCC | 102% | 107% | 1.31 |  |  |  | 
30 | C=CCNc1nc(N2CCC(NC3c4ccccc4CCc4ccccc43)CC2)c2ncn(CC=C)c2n1 | 120% | 119% |  |  |  |  | 
31 | C=CCNc1nc(N2CCC(NCC3c4ccccc4NC(=O)c4ccccc43)CC2)nc2c1ncn2CC=C (stereo unspecified) | 106% | 126% | 1.13 |  |  |  | 
32 | C=CCNc1nc(N2CCC(NCC(c3ccccc3)c3ccccc3)CC2)nc2c1ncn2CC=C | 93% | 115% | 1.3 |  |  |  | 
33 | C=CCNc1nc(N2CCC(NCC3c4ccccc4C=Cc4ccccc43)CC2)nc2c1ncn2CC=C | 111% | 110% |  | 1.21 |  |  | 
34 | C=CCNc1nc(N2CCC(NC3c4ccccc4N(C)S(=O)(=O)c4cc(Cl)ccc43)CC2)nc2c1ncn2CC=C (stereo in doubt; 11) | 146% | 60% |  |  | 1.27 |  | 
35 | C=CCNc1nc(N2CCC(NCC3c4ccccc4CCc4ccccc43)CC2)nc2c1cnn2CC=C | 74% | 132% | 1.31 |  |  |  | 
36 | C=CCNc1nc(N2CCC(NCC3c4ccccc4C=Cc4ccccc43)CC2)c2ncn(CC=C)c2n1 | 119% | 102% | 1.17 |  |  |  | 

Source: ChEMBL document CHEMBL1129437, “New purines and purine analogs as modulators of multidrug resistance” (J Med Chem, 1996)
